Laboratory results published in patent publication EP4417190A1, “CYCLIC PEPTIDES WITH ANTI-AGING EFFICACY” (Lipotrue, S.L., priority 2023, dated 2024).

Assays:
Collagen I (COL1) = assay: Collagen I immunostaining in HDF treated with conditioned media from peptide-treated keratinocytes; assay type: cell-based, human; details: 4 days of treatment with conditioned medium from peptide-treated keratinocytes (Figure 8)
Description: (§1) For TGFβ3 gene expression assessment, HEKa cells were seeded in 24-well plate at a density of […] and incubated at 37 °C in a humidified atmosphere with 5% CO2. Next day, cell culture media was replaced by fresh media containing 0.0025 or 0.01 mg/mL of cycled peptide B. In parallel, HDF cells were seeded on culture plates with or without coverslips (for immunofluorescence or qPCR, respectively) and incubated for 24 h.
(§2) Conditioned media from HEKa cells after 48 hours of treatment was then transferred to HDF culture plates. Cells were maintained in culture for additional 24h (for qPCR) or for 4 days (for collagen I immunostaining).
For the evaluation of collagen I (COLI) synthesis by immunostaining, HDF cells treated with HEKa conditioned media (as explained above) were washed twice with PBS, fixed with 4% formaldehyde and permeabilized with Triton X-100 0.2%. Next, samples were blocked for 1 hour with PBS/BSA 5%, in order to avoid nonspecific antibody binding. For collagen I staining, samples were incubated for 2 hours with Monoclonal Anti-Collagen, Type I antibody diluted 1:100 in PBS/BSA 1%, at room temperature. […] Images were analyzed using Image J software as mentioned above.

TGFβ3 = assay: qPCR TGFβ3 expression in HDF treated with conditioned media from peptide-treated keratinocytes; assay type: cell-based, human
Description: as §1, §2
For qPCR, cells were lysed, RNA extracted, and gene expression for TGFβ3 target was obtained as indicated in the previous examples.

[1] = test system: human immunoglobulin binding protein (BiP); assay: BiP ELISA in HEKa cell lysates; assay type: cell-based; details: 24 hours
Description: The effect of cycled peptides was determined on the production of human immunoglobulin binding protein (BiP) in human epidermal keratinocytes from adult (HEKa), through quantification of this protein in vitro in cell culture lysates by enzyme linked immunosorbent assay (ELISA).
In this study the BiP levels in human epidermal keratinocytes treated with cycled peptide B was evaluated, through quantification of this protein in vitro in cell culture lysates by enzyme linked immunosorbent assay (ELISA).
HEKa cells were seeded in a 24-well plate at a density of 50.000 cells/well and maintained at standard culture conditions (Supplemented Dermal Cell Basal Medium, DCBM; 37°C, 95% RH, 5% CO2) for 24 hours. Then, keratinocytes were treated for 24 hours with or without the presence of 0.01 or 0.05 mg/mL of cycled peptide A or peptide B. After treatment, cells were lysed with RIPA buffer and lysates were collected and centrifuged in order to eliminate cell debris and were kept at -80°C until they were used for BiP quantification with BiP ELISA Kit according to manufacturer instructions. In order to normalize data, total protein content of each sample was quantified through Micro BCA Protein Assay kit according to manufacturer instructions.
Each condition was performed at least in triplicate (n=3) in three independent experiments (N=3). For all data, mean values of the different experiments and SEM values are shown. All data was first normalized as follows: BiP levels/cell = (BiP levels per well)/(Total protein (BCA) per well) [formula] % vs Basal = (BiP per cell in treated samples)/(Bip per cell in untreated samples) × 100 [formula]
Statistical data analysis was performed using Student t-test by comparison of % BiP expression from cells untreated (Basal) vs. treated with cycled peptide samples, *p<0.05, **p<0.01, ***p<0.001.

ITGA5 [2] = assay: RT-qPCR expression of aging-related gene ITGA5 in HDFa; assay type: cell-based, human; details: 0.05 mg/mL, 6 h
Description: (§3) Then, cells were lysed, and RNA was extracted (RNeasy mini kit, Qiagen). Purified RNAs were retro-transcribed (High-capacity cDNA reverse transcription kit, Applied Biosystems). RT-qPCR was performed with the panel of TaqMan assay probes (Thermo Fisher Scientific) using StepOne plus Real time PCR instrument. […] The obtained data were analyzed using the ΔΔCt method, which provides the target gene expression values as fold changes in the treated sample compared with an untreated basal sample. Both samples were normalized with the relative expression of the housekeeping gene GAPDH.

CALR = assay: RT-qPCR expression of CALR gene in HEKa; details: 0.01 mg/mL
Description: HEKa cells were incubated in the presence of 0.01 mg/mL cycled peptide B for 24 hours and HDFa cells were treated with 0.05 mg/mL of cycled peptide B for 6 h. Then, cells were lysed, and RNA was extracted (RNeasy mini kit, Qiagen). Purified RNAs were retro-transcribed (High-capacity cDNA reverse transcription kit, Applied Biosystems). RT-qPCR was performed with the panel of TaqMan assay probes (Thermo Fisher Scientific) using StepOne plus Real time PCR instrument. […] The obtained data were analyzed using the ΔΔCt method, which provides the target gene expression values as fold changes in the treated sample compared with an untreated basal sample. Both samples were normalized with the relative expression of the housekeeping gene GAPDH.
Additionally, expression of CALR after treatment with 0.01 mg/mL of cycled peptides A and B for 24 hours in HEKa cells was analyze by qPCR as described in example 3.

FN = assay: RT-qPCR expression of aging-related gene FN in HEKa; assay type: cell-based, human; details: 0.01 mg/mL, 24 h
Description: as §3

Caspase 3 (CASP3) = assay: Caspase 3 activity under BFA-induced endoplasmic reticulum stress in HEKa (Caspase-Glo 3/7); assay type: cell-based, human; details: BFA-induced ER stress, 24 h, vs BFA-treated cells (Figure 5)
Description: Caspase 3 (CASP3) is a protein member of the cysteine-aspartic acid protease family. Sequential activation of caspases plays a central role in the execution-phase of cell apoptosis. It was evaluated the effect of the cycled peptide B on the caspase 3 activity in human epidermal keratinocytes from adult (HEKa) subjected to endoplasmic reticulum (ER) stress.
HEKa cells were seeded in a black 96-well plate at a density of 18.000 cell/well in Dermal Cell Basal Medium (DCBM) and incubated at 37 °C in a humidified atmosphere with 5% CO2. After 24 h of incubation, cells were treated with 0.15 µg/mL BFA alone or in the presence of 0.005 mg/mL of the cycled peptide B and returned to the incubator for 24 h more. Untreated cells (Basal) were used as negative control samples. 24 hours after treatment, caspase 3 activity was evaluated using Caspase-Glo® 3/7 Assay System, following manufacturer instructions.
Each condition was performed at least in triplicates (n=3) in three independent experiments (N=3). For all data, mean values of relative fluorescence units (RFU) of the different experiments and SEM values are shown. All data was normalized as follows: % vs BFA = (RFU treated cells)/(RFU BFA treated cells) × 100 [formula]
Statistical data analysis was performed using Student t-test by comparison of % activity from test substance vs BFA-treated cells, *p<0.05, **p<0.01, ***p<0.001.

ITGA5 [3] = assay: RT-qPCR expression of aging-related gene ITGA5 in HEKa; assay type: cell-based, human; details: 0.01 mg/mL, 24 h
Description: as §3

TGFBR3 = assay: RT-qPCR expression of aging-related gene TGFBR3 in HDFa; assay type: cell-based, human; details: 0.05 mg/mL, 6 h
Description: as §3

With `CC(C)C[C@@H]1NC(=O)[C@H](C)NC(=O)[C@H](Cc2c[nH]cn2)NC(=O)[C@H](Cc2c[nH]c3ccccc23)NC(=O)[C@H](Cc2ccccc2)NC(=O)[C@H](CCCNC(=N)N)NC1=O` [Peptide B, cyclo-Phe-Trp- His- Ala-Leu-Arg] the “Collagen I (COL1) levels” value (Collagen I (COL1)) was “significantly increased”, the “expression of TGFβ3 over the basal expression in keratinocyte conditioned media (KCM)” value (TGFβ3; 24 h with conditioned media from HEKa treated 48 hours with 0.0025 mg/mL) was 1.35 fold and the “expression of TGFβ3 over the basal expression in keratinocyte conditioned media (KCM)” value (TGFβ3; 24 h with conditioned media from HEKa treated 48 hours with 0.01 mg/mL) was 1.60 fold. The “% Mean (BiP per cell, % vs Basal)” value ([1]; 0.01 mg/mL) was 110.18%, the “% Mean (BiP per cell, % vs Basal)” value ([1]; 0.05 mg/mL) was 123.74% and the “increase of BiP levels, increment when compared with untreated cells (Basal)” value ([1]; concentration dependent) was “up to 24%”. The “Fold change vs. Basal” value (ITGA5 [2]) was 1.31, the Mean normalized expression (ITGA5 [2]; normalized to GAPDH) was 2.57E-01 and the “CALR expression, Effect” value (CALR; 24 hours, qPCR (Table 5)) was “Upregulation”. The “CALR expression, Ratio” value (CALR; 24 hours, qPCR (Table 5), Basal = 1.00) was 1.78, the “Fold change vs. Basal” value (CALR; CALR, 24 h (Table 3)) was 2.67 and the Mean normalized expression (CALR; CALR, 24 h, normalized to GAPDH) was 6.83E-01. For the same molecule, the “Fold change vs. Basal” value (FN) was 1.58, the Mean normalized expression (FN; normalized to GAPDH) was 3.28E-01 and the “caspase 3 activity” value (Caspase 3 (CASP3)) was “significantly reduce”. For the same molecule, the “Fold change vs. Basal” value (ITGA5 [3]) was 1.84, the Mean normalized expression (ITGA5 [3]; normalized to GAPDH) was 1.15E-01 and the “Fold change vs. Basal” value (TGFBR3) was 1.74. It also gave a Mean normalized expression (TGFBR3; normalized to GAPDH) of 8.00E-03.
